Results taken from US7179808B2 (Janssen Pharmaceutica N.V., priority 2002, dated 2007).
pIC50: −log10 of the molar value. Where a name gives a salt, the structure may show the parent alone.

Columns and labels:
NADPH-oxidase = target: T1, NADPH-oxidase (Homo sapiens, UniProt P04839); experiment: Oxidase Inhibition Assay (PMA-stimulated superoxide-mediated reduction of Cytochrome c, absorbance at 550 nm); assay type: cell-based; conditions: for pIC50: human neutrophils, 0.5 μM PMA, Cytochrome c reduction at 550 nm
T1 construct: endogenous in cells; host or cells: human neutrophils isolated from the buffy coat of one unit of blood
T1 sequence (P04839 1-570): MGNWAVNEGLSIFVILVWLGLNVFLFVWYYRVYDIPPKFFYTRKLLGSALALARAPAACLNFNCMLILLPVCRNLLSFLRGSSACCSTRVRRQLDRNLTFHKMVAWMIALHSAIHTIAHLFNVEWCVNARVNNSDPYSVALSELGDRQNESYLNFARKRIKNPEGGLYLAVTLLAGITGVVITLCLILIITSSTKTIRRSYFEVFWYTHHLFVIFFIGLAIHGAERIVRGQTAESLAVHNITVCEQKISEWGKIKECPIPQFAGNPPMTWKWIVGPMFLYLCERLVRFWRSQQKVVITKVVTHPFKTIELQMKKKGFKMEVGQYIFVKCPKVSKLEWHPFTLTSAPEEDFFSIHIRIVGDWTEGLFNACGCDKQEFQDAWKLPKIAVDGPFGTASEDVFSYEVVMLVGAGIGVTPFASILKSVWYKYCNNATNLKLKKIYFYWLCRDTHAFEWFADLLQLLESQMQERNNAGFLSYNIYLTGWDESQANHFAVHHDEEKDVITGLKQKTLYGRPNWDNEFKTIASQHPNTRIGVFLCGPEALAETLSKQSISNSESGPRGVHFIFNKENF
T1 sequence (P13498 1-195 partner): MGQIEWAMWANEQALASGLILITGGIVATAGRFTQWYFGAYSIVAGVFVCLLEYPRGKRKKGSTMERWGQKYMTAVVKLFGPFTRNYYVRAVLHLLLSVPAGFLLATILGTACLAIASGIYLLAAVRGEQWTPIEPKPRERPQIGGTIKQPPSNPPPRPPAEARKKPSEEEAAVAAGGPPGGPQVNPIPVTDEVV
Description: Whole cells (human neutrophils) are incubated with a pro-inflammatory agonist phorbol myristate acetate (PMA) in the presence or absence of test compound to measure the superoxide-mediated reduction of Cytochrome c at 550 nm. Inhibition of the oxidase is determined by a decreased absorbance at 550 nm, in response to test compound, relative to the absorbance seen with a vehicle control.
The buffy coat from one unit of blood is split evenly into four 50 mL tubes. To each tube 30 mL 3% Dextran (in 0.9% NaCl) is added and the tubes are inverted to mix. Tubes are allowed to sit undisturbed for 25 minutes. The resulting supernatant is recovered into four fresh tubes and centrifuged for 10 minutes at 600×g, 4° C. The supernatant is discarded and pellets are resuspended in 35 mL 0.9% saline. 10 mL Ficoll-Paque PLUS (Pharmacia Biotech AB) is layered beneath the cell suspension and centrifuged at 600×g for 40 minutes at room temperature. The supernatant is again discarded and tubes are tapped to loosen the resulting pellets. 20 mL 0.2% ice cold saline is added for 30 seconds followed by 20 mL 1.6% ice cold saline to lyse the remaining erythrocytes in the pellets. The pellets are centrifuged for 10 minutes at 600×g, 4° C., and the supernatant is discarded. The neutrophil pellets are resuspended in HBSS-glucose buffer (1 mg/mL), adding 2.5 mL to each tube for a total volume of 10 mL. The cell suspension is then counted on a hemocytometer.
The cell suspension is diluted to a concentration of 5×10^6/mL in HBSS-glucose and treated with 1 μg/mL Cytochalasin B (5 mg/mL DMSO) for 10 minutes at 37° C. in a shaking water bath. Cells are diluted to 6×10^5 cells/mL in 92 μM Cytochrome c for a final concentration of 5×10^4 cells/well.
The NADPH-oxidase assay is run on a Biomek 2000 workstation. The workstation adds 2.5 μl compound per well from source plates plus 12.5 μL per well 4 μM PMA (agonist). This volume is brought up to 100 μL total per well in the assay plates upon the addition of the prepared cells (85 μL). The final concentration of drug is 25 μM and PMA is 0.5 μM under these conditions.
The QC curve is a dose-responsive curve (from about 31.25 nM to about 4000 nM) for competitive binding against a known oxidase inhibitor such as DPI (diphenylene iodonium chloride). The following format was used for each compound tested:
The plates are incubated for 1 hour at 37° C. without CO2. The plates are then incubated at room temperature for 30 minutes and the absorbance is read at 550 nm.

ROS = conditions: human patients with rheumatoid arthritis and osteoarthritis, pharmacological doses; cited from earlier work
[1] = test system: mice with potassium peroxochromate arthritis; conditions: cited from earlier work

| Molecule | pIC50 (NADPH-oxidase) | melting point [°C] | further results |
| --- | --- | --- | --- |
| Clc1ccc(-c2csc(COc3cccc(CNC4CCCC4)c3)n2)cc1 [Cpd 3, 3-[[4-(4-chlorophenyl)-2-thiazolyl]methoxy]-N-cyclopentyl-benzenemethanamine] | 7.40 | 94 to 94.5 | – |
| 4-(4-chlorophenyl)-2-[[3-[(5-methyl-2-furanyl)methyl]phenoxy]methyl]-thiazole [Cpd 8] | 6.15 | – | – |
| CN1C(C(=O)Nc2ccccn2)=C(O)c2ccccc2S1(=O)=O [Piroxicam] | – | – | reduce levels of ROS (ROS): 25% |
| Clc1ccc(-c2csc(COc3ccc(CNC4CCCC4)cc3)n2)cc1 [Cpd 10, 4-[[4-(4-chlorophenyl)-2-thiazolyl]methoxy]-N-cyclopentyl-benzenemethanamine] | 6.15 | 125.5 to 126.5 | – |
| NCc1cccc(OCc2nc(-c3ccc(Cl)cc3)cs2)c1 [Cpd 11, 3-[[4-(4-chlorophenyl)-2-thiazolyl]methoxy]-benzenemethanamine] | 5.72 | 117 to 118.5 | – |
| Clc1ccc(-c2csc(COc3cccc(CNC4CC4)c3)n2)cc1 [Cpd 5, 3-[[4-(4-chlorophenyl)-2-thiazolyl]methoxy]-N-cyclopropyl-benzenemethanamine] | 5.46 | 80.5 to 81.5 | – |
| COc1ccc2[nH]cc(CCNCc3cccc(OCc4nc(-c5ccc(Cl)cc5)cs4)c3)c2c1 [Cpd 9, N-[[3-[[4-(4-chlorophenyl)-2-thiazolyl]methoxy]phenyl]methyl]-5-methoxy-1H-indole-3-ethanamine.HCl] | 6.52 | – | – |
| CCCNCc1cccc(OCc2nc(-c3ccc(Cl)cc3)cs2)c1 [Cpd 1, 3-[[4-(4-chlorophenyl)-2-thiazolyl]methoxy]-N-propyl-benzenemethanamine] | 5.78 | 63.5 to 64.5 | – |
| CC(C)CNCc1cccc(OCc2nc(-c3ccc(Cl)cc3)cs2)c1 | 5.60 | – | – |
| CN1CCCC1CNCc1cccc(OCc2nc(-c3ccc(Cl)cc3)cs2)c1 (centres unmarked) [Cpd 6, N-[[3-[[4-(4-chlorophenyl)-2-thiazolyl]methoxy]phenyl]methyl]-1-methyl-2-pyrrolidinemethanamine.(HCl)2] | 5.00 | – | – |
| Clc1ccc(-c2csc(COc3cccc(CNCCN4CCOCC4)c3)n2)cc1 [Cpd 7] | 5.83 | – | – |
| CCCCNCc1cccc(OCc2nc(-c3ccc(Cl)cc3)cs2)c1 [Cpd 2, 3-[[4-(4-chlorophenyl)-2-thiazolyl]methoxy]-N-(3-methylpropyl)-benzenemethanamine] | – | 86 to 88 | – |
| CCCNCc1ccc(OCc2nc(-c3ccc(Cl)cc3)cs2)cc1 [Cpd 1a, 4-[[4-(4-chlorophenyl)-2-thiazolyl]methoxy]-N-propyl-benzenemethanamine] | – | 63.5 to 64.5 | – |
| Clc1ccc(-c2csc(COc3cccc(CNC4CCCCC4)c3)n2)cc1 [Cpd 4, 3-[[4-(4-chlorophenyl)-2-thiazolyl]methoxy]-N-cyclohexyl-benzenemethanamine] | 6.89 | 85 to 86 | – |
| c1ccc2c(c1)[I+]c1ccccc1-2 [DPI, diphenylene iodoniumchloride] | – | – | inhibition at 10 µM (NADPH-oxidase; QC wells G–H, 2.5 μL of 10 μM DPI, at 250 nm (so in the source), agonist added): ~70%; inhibition of the arthritis ([1]; 10 mmol/kg): Complete inhibition; inhibited the arthritis ([1]; daily doses of 2.8 μmol/kg): 50% |
